Test results as given in the SangsterLogP compilation.

logP | SMILES
8.7 | CCCCCCCCCCCCCCCCCCCl
3.1 | CCCCCCC(=O)OC
8.92 | CCCCCCCCCCCCCCCCC
6.69 | CCCCCCCCCC

Further lines, the compound ahead of its results:

SMILES | logP
Clc1cc(Cl)c(-c2c(Cl)cc(Cl)cc2Cl)c(Cl)c1 | 6.39
C=C(C)CC(C)(C)C | 5.44
c1ccc2c(c1)ccc1cc3c(ccc4ccccc43)cc12 | 6.88
c1ccc(Cc2ccccc2)cc1 | 4.22
CC(C)CC(C)(C)C | 5.83
Brc1ccc(Br)s1 | 4.15
c1ccc(C2CCCCC2)cc1 | 5.54
BrCC(Br)C(Br)CBr (centres undefined) | 3.22
C=CCCCCCCC=C | 5.7
CCCCC(CC)CCl (centres undefined) | 5.2
